According to PubChem BioAssay (NCI):
“And” between values parts separate entries of the source, which are not always exact repeats. Equal values may be shown once.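 Where inhibition never reached the appropriate level, the endpoint shown equals the highest concentration tested. Otherwise, values were interpolated linearly from a five-concentration, 48-hour dose response in 96-well plates. GI50 marks 50% less growth. TGI denotes the concentration required for complete inhibition of growth.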

Columns and labels:
Test in all cases: inhibition of tumour cell growth, NCI panel, 48 h
[1] = test system: EKVX NSCLC
[2] = test system: SF-295 CNS
[3] = test system: UACC-257 melanoma
[4] = test system: SNB-75 CNS
[5] = test system: NCI-H226 lung
[6] = test system: RXF 393 renal
[7] = test system: SN12C renal
[8] = test system: SK-OV-3 ovarian
[9] = test system: SR leukemia
[10] = test system: HL-60(TB) leukemia

| Compound | TGI [1] | TGI [2] [µM] | TGI [3] | TGI [4] [µM] | TGI [5] | TGI [6] [µM] | TGI [7] | TGI [8] [µM] | TGI [9] | TGI [10] [µM] | GI50 [1] [µM] | GI50 [2] [µM] | GI50 [3] [µM] | GI50 [4] [µM] | GI50 [5] [µM] | GI50 [7] [µM] | GI50 [8] [µM] | GI50 [9] [µM] | GI50 [10] [µM] | GI50 [6] [µM] |
| --- | --- | --- | --- | --- | --- | --- | --- | --- | --- | --- | --- | --- | --- | --- | --- | --- | --- | --- | --- | --- |
| CC1OC(OCC2OC(Oc3c(-c4ccc(O)cc4)oc4cc(O)cc(O)c4c3=O)C(OC3OC(C)C(O)C(O)C3O)C(O)C2O)C(O)C(O)C1O (stereo not drawn) | > 100 µM | > 100 | > 100 µM | > 100 | > 100 µM | > 100 | > 100 µM | > 100 | > 100 µM | > 100 | – | – | – | – | – | – | – | – | – | – |
| O=C1C=CC=CC2CC=C[C@@H](O)C12 (stereo partly drawn) | 63.5 µM | 48.5 | 29.7 µM | – | – | – | 47.2 µM | > 100 | 44.2 µM | 37 | – | – | – | – | – | – | – | – | – | – |
| Cc1ccc(S(=O)(=O)NCCNC2=CC(=O)c3nc4ccccc4c4ccnc2c34)cc1 | 89 µM | 39 | 54.3 µM | 41.3 | 54.4 µM | – | 39.6 µM | > 100 | > 100 µM | > 100 | 32.3 | 17.7 | 19.5 | 18.3 | 22.2 | 17.8 | 33.1 | 4.77 | 28.1 | – |
| CCOC(=O)C1=C(c2ccccc2)N(C)c2ccccc2S1 | > 100 µM | > 100 | 86.1 µM | > 100 | 54.1 µM | – | 58.2 µM | > 100 | > 100 µM | > 100 | – | – | – | – | – | – | – | – | – | – |
| CSC(CC(=O)O)C(=O)O (stereo not drawn) | > 100 µM | > 100 | > 100 µM | > 100 | > 100 µM | > 100 | > 100 µM | > 100 | > 100 µM | > 100 | – | – | – | – | – | – | – | – | – | – |
| COc1cc(/C=C\c2ccccc2)cc(OC)c1OC | > 84.9 µM | 7.21 | 41.3 µM | 6.9 | 24.1 µM | 5.25 | 48.6 µM | – | 26.7 µM | 6.34 | – | – | – | – | – | – | – | – | – | – |
| C=C(CCCCCCCCC)CC(=O)SCCNC(=O)CCNC(=O)C(O)C(C)(C)COP(=O)(O)OP(=O)(O)OCC1OC(n2cnc3c(N)ncnc32)C(O)C1OP(=O)(O)O (stereo not drawn) | > 100 µM | > 100 | > 100 µM | 58.8 | > 100 µM | > 100 | > 100 µM | > 100 | > 100 µM | > 90.9 | – | – | – | – | – | – | – | – | – | – |
| COc1cc(/C=C2\CCC/C(=C\c3cc(OC)c(O)c(OC)c3)C2=O)cc(OC)c1O | 75 µM and > 100 µM | – | 75 µM and > 100 µM | > 100 | 47.9 µM and > 100 µM | 3.22 | 75 µM and > 100 µM | > 100 | 75 µM and 28.8 µM | – | 5.14 | 4.98 | 2.92 | – | 3.91 | 4.37 | – | 1.73 | – | – |
| NCCCOCC(=O)O | > 100 µM | > 100 | > 100 µM | > 100 | > 100 µM | > 100 | > 100 µM | > 100 | > 100 µM | – | – | – | – | – | – | – | – | – | – | – |
| O=C(Nc1cccs1)c1c(O)[nH]c(=S)[nH]c1=O | – | > 100 | > 100 µM | – | > 100 µM | – | > 100 µM | > 100 | > 100 µM | – | – | – | – | – | – | – | – | – | – | – |
| O=C1C(c2c[nH]c3ccccc23)=C(c2c[nH]c3ccccc23)C(=O)N1O | – | > 25 | > 25 µM | > 25 | > 25 µM | > 25 | > 25 µM | > 25 | > 25 µM | > 25 | – | > 25 | > 25 | > 25 | > 25 | > 25 | > 25 | > 25 | > 25 | > 22.7 |
| O=Nc1c(-c2c(O)[nH]c3ccc([N+](=O)[O-])cc23)[nH]c2ccc(O)cc12 | – | > 100 | > 83.9 µM | 3.64 | > 100 µM | 0.475 | > 100 µM | – | 12.6 µM | 1.04 | – | 0.62 | 0.647 | 0.0264 | 0.383 | 0.366 | – | 0.258 | 0.312 | 0.18 |
| O=Cc1ccccc1OCCOc1cc(OCCOc2ccccc2C=O)c(OCCOc2ccccc2C=O)cc1OCCOc1ccccc1C=O | > 100 µM | – | > 100 µM | 23.9 | > 100 µM | > 100 | > 100 µM | > 100 | > 100 µM | > 100 | – | – | – | – | – | – | – | – | – | – |
| COC1=CC(=O)C2C(C1=O)[C@@H]1c3ccccc3C[C@H]21 (stereo partly drawn) | > 100 µM | > 100 | > 100 µM | > 100 | – | > 100 | – | > 100 | > 100 µM | > 100 | – | – | – | – | – | – | – | – | – | – |
| OCCCOC(c1ccccc1)(c1ccccc1)c1ccccc1 | – | > 100 | > 100 µM | 62 | – | – | > 100 µM | > 100 | > 100 µM | > 100 | – | – | – | – | – | – | – | – | – | – |
| COc1ccccc1/C=C1\CCC(CCN(C)C)(C2=CCCC2)C1=O (stereo not drawn) | 18.6 µM | 31.7 | 31 µM | 54.7 | 40.5 µM | 27.3 | 50.3 µM | – | 52.3 µM | 45.5 | – | – | – | – | – | – | – | – | – | – |
| O=C(O)[C@@H]1[C@H](C(=O)O)[C@H](C(=O)O)C[C@@H]1C(=O)O | > 100 µM | > 100 | > 100 µM | > 100 | > 100 µM | > 100 | > 100 µM | > 100 | > 100 µM | – | – | – | – | – | – | – | – | – | – | – |
| COC(=O)C(C(=O)C(=O)Nc1ccc(C(F)(F)F)cc1[N+](=O)[O-])c1csc(-n2nc(-c3ccccc3)cc2-c2ccccc2)n1 (stereo not drawn) | – | > 100 | > 100 µM | > 100 | > 100 µM | > 100 | > 100 µM | > 100 | > 100 µM | > 100 | – | – | – | – | – | – | – | – | – | – |
| O=C(c1ccccc1)C1CCCCN1C(=O)c1ccccc1 (stereo not drawn) | – | – | > 100 µM | > 100 | > 100 µM | > 100 | > 100 µM | > 100 | > 100 µM | > 100 | – | – | – | – | – | – | – | – | – | – |
| CC12N=NN(c3ccc([N+](=O)[O-])cc3)C1(O)c1ccccc1C2=O (stereo not drawn) | > 100 µM | > 100 | > 100 µM | – | > 100 µM | > 100 | > 100 µM | > 100 | > 100 µM | > 100 | – | – | – | – | – | – | – | – | – | – |
| CCCCCCCNc1nc(C(=O)OCC)ncc1-c1ccc(C(F)(F)F)cc1 | – | > 100 | 75.6 µM | > 100 | > 100 µM | 71.1 | > 100 µM | > 100 | > 100 µM | 88.8 | – | 26.4 | 26.6 | 41.7 | 30.5 | 33.8 | 39.1 | 35.5 | 30.4 | 19 |
| COc1ccc(N2Cc3cnc(Nc4ccccc4)nc3N([C@@H]3CC[C@@H](O)C3)C2=O)cc1 | – | > 25 | > 25 µM | 3.58 | > 25 µM | 3.18 | > 25 µM | > 25 | > 16.6 µM | > 20.7 | – | 17.6 | 7.36 | 0.377 | 0.523 | 1.31 | 3.69 | 3.12 | 4.45 | 0.399 |
| COc1cc2c(c(OC)c1OC)-c1ccc(N)c(=O)cc1[C@@H](NC(C)=O)CC2 | > 100 µM | – | > 100 µM | – | – | > 100 | > 100 µM | > 100 | > 100 µM | – | 0.0808 | 0.0339 | > 100 | – | 0.0852 | 0.0546 | 0.0388 | < 0.01 | 0.0171 | 0.0303 |
| Cc1ccc(-c2cc(-c3ccco3)c(C#N)c(=O)[nH]2)cc1 | > 100 µM | > 100 | > 100 µM | > 100 | > 100 µM | > 100 | > 100 µM | 97.6 | – | > 100 | – | – | – | – | – | – | – | – | – | – |
| O=C1C=C(NCCNC(=S)Nc2ccccc2)c2nccc3c2c1nc1ccccc13 | > 100 µM | > 100 | > 100 µM | > 100 | > 100 µM | – | > 100 µM | > 100 | > 100 µM | > 100 | > 100 | 39.7 | 93.2 | > 100 | 70 | 23.5 | > 100 | 2.97 | 17.4 | – |
| O=C(O)C1C2CCC(O2)C1C(=O)N1CCCCC1 (stereo not drawn) | 29.2 µM | 23.9 | 32.4 µM | 17.2 | 16.6 µM | 8.35 | 7.17 µM | 42.9 | 14.2 µM | – | – | – | – | – | – | – | – | – | – | – |
| CCCCC1CC(c2cccc([N+](=O)[O-])c2)=NO1 (stereo not drawn) | > 100 µM | > 100 | > 100 µM | > 100 | > 100 µM | – | > 100 µM | > 100 | > 100 µM | > 100 | – | – | – | – | – | – | – | – | – | – |
| O=C(/C=C/C12c3ccccc3C(c3ccccc31)C1C(=O)N(c3ccccc3)C(=O)C12)c1ccccc1 (stereo not drawn) | > 100 µM | – | 39.2 µM | > 100 | 8.63 µM | 2.82 | > 100 µM | > 100 | > 100 µM | 8.66 | 2.09 | – | 2.3 | 2.39 | 2.34 | 2.53 | 28.3 | 2.02 | 1.02 | 1.21 |
